Assays:
Assay type in all cases: ADME
[1] = The drug is tested on Gemella morbillorum strain: DSM20572 for biotransformation under microaerobic condition. The drug concentrations were measured over 6 timepoints collected between 0 and 12 hours of incubation by liquid-chromatography-coupled mass spectrometry (LC–MS); set-up: dose 5 uM, timepoint 0, 1.5, 3, 6, 9, 12 hours; conditions: 5 µM
[2] = (§1) The drug is tested on the gut metagenome community of A-01 with ENA study accession number: PRJEB31790 for biotransformation under anaerobic condition. The drug concentrations were measured over 7 timepoints collected between 0 and 12 hours of incubation by liquid-chromatography-coupled mass spectrometry (LC–MS); set-up: dose 5 uM, timepoint 0, 0.75, 1.5, 3, 6, 9, 12 hours; conditions: 5 µM
[3] = as §1, with “T-02” for “A-01”; set-up: dose 5 uM, timepoint 0, 0.75, 1.5, 3, 6, 9, 12 hours; conditions: 5 µM
[4] = The drug is tested on Streptococcus anginosus strain: DSM20563 for biotransformation under microaerobic condition. The drug concentrations were measured over 6 timepoints collected between 0 and 12 hours of incubation by liquid-chromatography-coupled mass spectrometry (LC–MS); set-up: dose 5 uM, timepoint 0, 1.5, 3, 6, 9, 12 hours; conditions: 5 µM
[5] = The drug is tested on Lactobacillus ruminis strain: ATCC25644 for biotransformation under anaerobic condition. The drug concentrations were measured over 6 timepoints collected between 0 and 12 hours of incubation by liquid-chromatography-coupled mass spectrometry (LC–MS); set-up: dose 5 uM, timepoint 0, 1.5, 3, 6, 9, 12 hours; conditions: ligilactobacillus ruminis, 5 µM
[6] = as §1, with “A-02” for “A-01”, “microaerobic” for “anaerobic”; set-up: dose 5 uM, timepoint 0, 0.75, 1.5, 3, 6, 9, 12 hours; conditions: 5 µM
[7] = The drug is tested on Bacteroides vulgatus strain: DSM1447 for biotransformation under anaerobic condition. The drug concentrations were measured over 6 timepoints collected between 0 and 12 hours of incubation by liquid-chromatography-coupled mass spectrometry (LC–MS); set-up: dose 5 uM, timepoint 0, 1.5, 3, 6, 9, 12 hours; conditions: phocaeicola vulgatus, 5 µM
[8] = as §1, with “P-03” for “A-01”; set-up: dose 5 uM, timepoint 0, 0.75, 1.5, 3, 6, 9, 12 hours; conditions: 5 µM
[9] = The drug is tested on Alloscardovia omnicolens strain: DSM21503 for biotransformation under anaerobic condition. The drug concentrations were measured over 6 timepoints collected between 0 and 12 hours of incubation by liquid-chromatography-coupled mass spectrometry (LC–MS); set-up: dose 5 uM, timepoint 0, 1.5, 3, 6, 9, 12 hours; conditions: 5 µM
[10] = as §1, with “P-01” for “A-01”; set-up: dose 5 uM, timepoint 0, 0.75, 1.5, 3, 6, 9, 12 hours; conditions: 5 µM
[11] = as §1, with “P-02” for “A-01”; set-up: dose 5 uM, timepoint 0, 0.75, 1.5, 3, 6, 9, 12 hours; conditions: 5 µM
[12] = The drug is tested on Streptococcus sanguinis strain: DSM20567 for biotransformation under microaerobic condition. The drug concentrations were measured over 6 timepoints collected between 0 and 12 hours of incubation by liquid-chromatography-coupled mass spectrometry (LC–MS); set-up: dose 5 uM, timepoint 0, 1.5, 3, 6, 9, 12 hours; conditions: 5 µM
[13] = The drug is tested on Clostridium ramosum strain: DSM1402 for biotransformation under anaerobic condition. The drug concentrations were measured over 6 timepoints collected between 0 and 12 hours of incubation by liquid-chromatography-coupled mass spectrometry (LC–MS); set-up: dose 5 uM, timepoint 0, 1.5, 3, 6, 9, 12 hours; conditions: thomasclavelia ramosa, 5 µM
[14] = as §1, with “A-10” for “A-01”; set-up: dose 5 uM, timepoint 0, 0.75, 1.5, 3, 6, 9, 12 hours; conditions: 5 µM
[15] = The drug is tested on Lactobacillus reuteri strain: DSM20016 for biotransformation under microaerobic condition. The drug concentrations were measured over 6 timepoints collected between 0 and 12 hours of incubation by liquid-chromatography-coupled mass spectrometry (LC–MS); set-up: dose 5 uM, timepoint 0, 1.5, 3, 6, 9, 12 hours; conditions: limosilactobacillus reuteri, 5 µM
[16] = The drug is tested on Escherichia coli strain: DSM27469 for biotransformation under anaerobic condition. The drug concentrations were measured over 6 timepoints collected between 0 and 12 hours of incubation by liquid-chromatography-coupled mass spectrometry (LC–MS); set-up: dose 5 uM, timepoint 0, 1.5, 3, 6, 9, 12 hours; conditions: 5 µM
[17] = The drug is tested on Gemella haemolysans strain: DSM107751 for biotransformation under anaerobic condition. The drug concentrations were measured over 6 timepoints collected between 0 and 12 hours of incubation by liquid-chromatography-coupled mass spectrometry (LC–MS); set-up: dose 5 uM, timepoint 0, 1.5, 3, 6, 9, 12 hours; conditions: 5 µM
[18] = The drug is tested on Akkermansia muciniphila strain: DSM22959 for biotransformation under anaerobic condition. The drug concentrations were measured over 6 timepoints collected between 0 and 12 hours of incubation by liquid-chromatography-coupled mass spectrometry (LC–MS); set-up: dose 5 uM, timepoint 0, 1.5, 3, 6, 9, 12 hours; conditions: 5 µM
[19] = as §1, with “A-04” for “A-01”; set-up: dose 5 uM, timepoint 0, 0.75, 1.5, 3, 6, 9, 12 hours; conditions: 5 µM
[20] = The drug is tested on Bacteroides thetaiotaomicron strain: DSM2079 for biotransformation under anaerobic condition. The drug concentrations were measured over 6 timepoints collected between 0 and 12 hours of incubation by liquid-chromatography-coupled mass spectrometry (LC–MS); set-up: dose 5 uM, timepoint 0, 1.5, 3, 6, 9, 12 hours; conditions: 5 µM
[21] = The drug is tested on Lactobacillus fermentum strain: DSM20052 for biotransformation under anaerobic condition. The drug concentrations were measured over 6 timepoints collected between 0 and 12 hours of incubation by liquid-chromatography-coupled mass spectrometry (LC–MS); set-up: dose 5 uM, timepoint 0, 1.5, 3, 6, 9, 12 hours; conditions: limosilactobacillus fermentum, 5 µM
[22] = The drug is tested on Lactobacillus gasseri strain: DSM20243 for biotransformation under anaerobic condition. The drug concentrations were measured over 6 timepoints collected between 0 and 12 hours of incubation by liquid-chromatography-coupled mass spectrometry (LC–MS); set-up: dose 5 uM, timepoint 0, 1.5, 3, 6, 9, 12 hours; conditions: 5 µM
[23] = The drug is tested on Lactobacillus paracasei strain: ATCC27092 for biotransformation under anaerobic condition. The drug concentrations were measured over 6 timepoints collected between 0 and 12 hours of incubation by liquid-chromatography-coupled mass spectrometry (LC–MS); set-up: dose 5 uM, timepoint 0, 1.5, 3, 6, 9, 12 hours; conditions: lacticaseibacillus paracasei, 5 µM
[24] = The drug is tested on Lactobacillus reuteri strain: DSM20016 for biotransformation under anaerobic condition. The drug concentrations were measured over 6 timepoints collected between 0 and 12 hours of incubation by liquid-chromatography-coupled mass spectrometry (LC–MS); set-up: dose 5 uM, timepoint 0, 1.5, 3, 6, 9, 12 hours; conditions: limosilactobacillus reuteri, 5 µM
[25] = as §1, with “A-03” for “A-01”, “microaerobic” for “anaerobic”; set-up: dose 5 uM, timepoint 0, 0.75, 1.5, 3, 6, 9, 12 hours; conditions: 5 µM
[26] = as §1, with “P-04” for “A-01”, “microaerobic” for “anaerobic”; set-up: dose 5 uM, timepoint 0, 0.75, 1.5, 3, 6, 9, 12 hours; conditions: 5 µM
[27] = as §1, with “microaerobic” for “anaerobic”; set-up: dose 5 uM, timepoint 0, 0.75, 1.5, 3, 6, 9, 12 hours; conditions: 5 µM
[28] = as §1, with “T-03” for “A-01”, “microaerobic” for “anaerobic”; set-up: dose 5 uM, timepoint 0, 0.75, 1.5, 3, 6, 9, 12 hours; conditions: 5 µM
[29] = The drug is tested on Alloscardovia omnicolens strain: DSM21503 for biotransformation under microaerobic condition. The drug concentrations were measured over 6 timepoints collected between 0 and 12 hours of incubation by liquid-chromatography-coupled mass spectrometry (LC–MS); set-up: dose 5 uM, timepoint 0, 1.5, 3, 6, 9, 12 hours; conditions: 5 µM
[30] = The drug is tested on Clostridium scindens strain: DSM5676 for biotransformation under anaerobic condition. The drug concentrations were measured over 6 timepoints collected between 0 and 12 hours of incubation by liquid-chromatography-coupled mass spectrometry (LC–MS); set-up: dose 5 uM, timepoint 0, 1.5, 3, 6, 9, 12 hours; conditions: 5 µM

Row | Bacterial Biotransformation [1] | Bacterial Biotransformation [2] | Bacterial Biotransformation [3] | Bacterial Biotransformation [4] | Bacterial Biotransformation [5] | Bacterial Biotransformation [6] | Bacterial Biotransformation [7] | Bacterial Biotransformation [8] | Bacterial Biotransformation [9] | Bacterial Biotransformation [10] | Bacterial Biotransformation [11] | Bacterial Biotransformation [12] | Bacterial Biotransformation [13] | Bacterial Biotransformation [14] | Bacterial Biotransformation [15] | Bacterial Biotransformation [16] | Bacterial Biotransformation [18] | Bacterial Biotransformation [19] | Bacterial Biotransformation [20] | SMILES | Bacterial Biotransformation [17] | also measured
1 | Compound NOT metabolized | Compound NOT metabolized | Compound metabolized | Compound NOT metabolized | Compound NOT metabolized | Compound metabolized | Compound NOT metabolized | Compound metabolized | Compound NOT metabolized | Compound NOT metabolized | Compound metabolized | Compound NOT metabolized | Compound NOT metabolized | Compound NOT metabolized | Compound NOT metabolized | Compound NOT metabolized | Compound NOT metabolized | Compound metabolized | Compound NOT metabolized | C[C@H]1C[C@H]2[C@@H]3CCC4=CC(=O)C=C[C@]4(C)[C@@]3(F)[C@@H](O)C[C@]2(C)[C@@]1(O)C(=O)CO [BETAMETHASONE] | Compound NOT metabolized | Bacterial Biotransformation [21]: Compound NOT metabolized; Bacterial Biotransformation [22]: Compound NOT metabolized; Bacterial Biotransformation [23]: Compound NOT metabolized; Bacterial Biotransformation [24]: Compound NOT metabolized; Bacterial Biotransformation [25]: Compound NOT metabolized; Bacterial Biotransformation [26]: Compound NOT metabolized; Bacterial Biotransformation [27]: Compound NOT metabolized; Bacterial Biotransformation [28]: Compound NOT metabolized; Bacterial Biotransformation [29]: Compound NOT metabolized; Bacterial Biotransformation [30]: Compound metabolized
2 | Compound NOT metabolized | Compound NOT metabolized | Compound NOT metabolized | Compound NOT metabolized | Compound NOT metabolized | Compound metabolized | Compound NOT metabolized | Compound metabolized | Compound NOT metabolized | Compound metabolized | Compound metabolized | Compound NOT metabolized | Compound NOT metabolized | Compound NOT metabolized | Compound NOT metabolized | Compound NOT metabolized | Compound NOT metabolized | Compound NOT metabolized | Compound NOT metabolized | CCCC1O[C@@H]2C[C@H]3[C@@H]4CCC5=CC(=O)C=C[C@]5(C)[C@H]4[C@@H](O)C[C@]3(C)[C@]2(C(=O)CO)O1 (stereo not given in full) [BUDESONIDE] | Compound NOT metabolized | Bacterial Biotransformation [21]: Compound NOT metabolized; Bacterial Biotransformation [22]: Compound NOT metabolized; Bacterial Biotransformation [23]: Compound NOT metabolized; Bacterial Biotransformation [24]: Compound NOT metabolized; Bacterial Biotransformation [25]: Compound metabolized; Bacterial Biotransformation [26]: Compound NOT metabolized; Bacterial Biotransformation [27]: Compound NOT metabolized; Bacterial Biotransformation [28]: Compound NOT metabolized; Bacterial Biotransformation [29]: Compound NOT metabolized; Bacterial Biotransformation [30]: Compound NOT metabolized
3 | Compound NOT metabolized | Compound metabolized | Compound metabolized | Compound NOT metabolized | Compound NOT metabolized | Compound metabolized | Compound NOT metabolized | Compound metabolized | Compound NOT metabolized | Compound metabolized | Compound metabolized | Compound NOT metabolized | Compound NOT metabolized | Compound metabolized | Compound NOT metabolized | Compound NOT metabolized | Compound NOT metabolized | Compound metabolized | Compound NOT metabolized | C[C@]12CCC(=O)C=C1CC[C@@H]1[C@@H]2C(=O)C[C@@]2(C)[C@H]1CC[C@]2(O)C(=O)CO [CORTISONE] | Compound NOT metabolized | Bacterial Biotransformation [21]: Compound NOT metabolized; Bacterial Biotransformation [22]: Compound NOT metabolized; Bacterial Biotransformation [23]: Compound NOT metabolized; Bacterial Biotransformation [24]: Compound NOT metabolized; Bacterial Biotransformation [25]: Compound metabolized; Bacterial Biotransformation [26]: Compound metabolized; Bacterial Biotransformation [27]: Compound metabolized; Bacterial Biotransformation [28]: Compound NOT metabolized; Bacterial Biotransformation [29]: Compound NOT metabolized; Bacterial Biotransformation [30]: Compound metabolized

Reference: ChEMBL document CHEMBL5724806, “Unraveling interindividual differences and functional consequences of gut microbial metabolism of immunosuppressants” (2024)
